Data: patent publication US9675664B2, “Compositions, formulations and methods of treating preeclampsia-type disorders of pregnancy” (Women & Infants' Hospital of Rhode Island, priority 2009, dated 2017)

What was measured:
[1] = endogenous TTR; cited from earlier work
Pregnant IL-10−/− mice = assay: In vivo rescue of PE serum induced preeclampsia-like symptoms in pregnant IL-10-/- mice
Description: Recombinantly produced TTR (detected by SDS-PAGE electrophoresis and purity 96%) was obtained from AbD Serotec, Raleigh, N.C. 27604, USA. Recombinant TTR obtained in lyophilized form was reconstituted with sterile phosphate-saline buffer to obtain a final concentration of 1 mg/ml and maintained at >pH 7.0. The solutions were stored as aliquots and frozen at −80° C. until use. Thirty minutes prior to experimentation, the aliquots of TTR were thawed, then mixed with 100 μl of PE serum samples. Pregnant IL-10^−/− mice (C57BL/6, Jackson Labs, USA) were then injected intraperitoneally on gestational day (g.d.) 10 at a TTR dose of 20 microgram/mouse. The gestational period in mice is 20 days. Similarly, 100 μl PE serum or normal pregnancy serum was administered to different set of animals as control. On g.d.16/17, urine and serum samples were collected from each mouse, and blood pressure measurements were taken. Blood pressure was taken by an established tail-cuff method which utilizes a programmed sphygmomanometer. The animals adapted for 5 min using a warming test chamber (IITC Life Science Inc, Woodland Hills, Calif.) at controlled temperature (35° C.). The measurements were carried out on day 17 of pregnancy using DigiMed blood pressure analyzer, (MicroMed, Louisville, Ky., 40222-4683). Each measurement of blood pressure is an average of three readings at 1 min intervals from a number of animals (˜3-5 each). Systolic blood pressure was compared among non-pregnant and pregnant mice. All animals were age matched. Data was analyzed using Digi-Med® System Integrator™ Model 400 (DMSI-400).
Total urinary albumen was measures using Albumin (mouse) ELISA kit (ALPCO Diagnostics, Salem, N.H.) and urinary creatinine was measured using Metra Creatinine Kit (Quidel Corporation, San Diego, Calif.). Protinuria as represented as a ration of urinary albumin to creatinine (expressed as μg/mg). (Baseline values seen in mice range from 100-400 μg/mg.)
On g.d. 17 the mice were euthanized, the uterine horns were extracted, photographed and pregnancy outcomes were recorded. […] 10 in IL10^−/− mice. The effects in response to only one administration of serum (100 μl) were evaluated on g.d. 17.

[2] = test system: endothelial cells (EC) and trophoblasts (HTR) crosstalk; assay: In vitro endothelial cell-trophoblast co-culture tube (vacuole) formation assay on matrigel with pregnancy serum; format: cell-based, human; conditions: for rescue of mild PE serum induced disrupted EC-HTR8 crosstalk (tube assay): mild preeclampsia serum (mPE), TTR preincubated at 0.1, 1.0, 10 μg/ml of serum; for rescue of severe PE serum induced disrupted EC-HTR8 crosstalk (tube assay): severe preeclampsia serum (sPE), TTR preincubated at 0.1, 1.0, 10 microgram/ml of serum
Source text: The in vitro assay described in this example is based on the premise that during normal pregnancy, fetal derived trophoblasts called the “invasive cytotrophoblasts” invade the maternal decidua and the endothelial cell lined spiral arteries. This phenomenon can be restructured using serum from pregnancy as physiological milieu and culturing human umbilical vein endothelial cells and trophoblasts on basement membrane such as matrigel. […] For additional information see U.S. Provisional Patent Application No. 61/063,491 filed Feb. 4, 2008 and/or Kalkunte, In Vitro and In Vivo Evidence for Lack of Vascular Remodeling by Third Trimester Trophoblasts, Placenta 29: 871-78 (2008).
Recombinantly produced TTR (detected by SDS-PAGE electrophoresis and purity 96%) was obtained from AbD Serotec, Raleigh, N.C. 27604, USA. Recombinant TTR obtained in lyophilized form was reconstituted with sterile phosphate-saline buffer to obtain a final concentration of 1 mg/ml and maintained at >pH 7.0. The solutions were stored as aliquots frozen at −80° C. until use. Thirty minutes prior to experimentation, the aliquots of TTR were thawed, then mixed with serum and incubated at 37° C. for 30 minutes.
The in vitro method further includes incubating a co-culture of human endothelial cells and human trophoblast cells in the presence of serum or plasma obtained from a pregnant person for a period of time sufficient to permit vacuolization (also referred to as “capillary formation” and “tube formation” in FIGS. 2-4), and after incubation determining whether substantial vacuolization in the co-culture has occurred by quantification as described in Example 3.
During pregnancy, angiogenesis is characterized by spiral artery remodeling for which trophoblast invasion into these maternal blood vessels is a prerequisite. The data of FIG. 2 show an in vitro model of interaction of trophoblasts and endothelial cells that mimics spiral artery remodeling. Specifically, 2.5×10^4 endothelial cells labeled red and 2.5×10^4 trophoblasts, labeled green, were co-cultured on matrigel coated plates and stimulated with either NPS (normal pregnancy serum) or severe PES (Preeclampsia Serum) as described above. In the absence of exogenous TTR, serum from severe (FIG. 2 Panel B #5 and C #9) preeclampsia patients blocks the “cross-talk” between endothelial-trophoblast cells, causing obvious differences in architecture as compared to the same cells stimulated under the same conditions with NPS serum (sample L1045; FIG. 2 Panel A, #1).
Briefly, 2.5×10^4 endothelial cells labeled red and 2.5×10^4 trophoblasts, each from different trimesters labeled green (FIG. 2), were co-cultured on matrigel coated plates and stimulated with either NPS or mild PES as described above. […] The number of vacuoles (or tubes) formed per sample were counted and represented in the graph (FIG. 4, mPE with and without TTR). […] Statistical significance of experimental differences was assessed using Student's paired t-test. […]
The in vitro studies conducted in Example 2 were quantified by counting the number of tube like structures termed as “vacuole” under fluorescence microscope (Nikon Eclipse TS 100 coupled with CCD camera) in four different fields at 4× magnification. […]

[3] = sPE serum 100 μl i.p. on g.d. 10 with co-administered TTR 20 microgram/mouse, evaluated g.d. 17

Substance	half life [1]	TTR levels in mouse serum (SELDI-TOF relative intensity) (Pregnant IL-10−/− mice; reduction induced by severe preeclampsia serum, FIG. 6)	intrauterine growth restriction (fetal weight) (Pregnant IL-10−/− mice; [3])	systolic blood pressure (hypertension) (Pregnant IL-10−/− mice; [3])	proteinuria (urinary albumin to creatinine ratio) (Pregnant IL-10−/− mice; sPE serum 100 μl i.p. on g.d. 10 with co-administered TTR 20 microgram/mouse, urine g.d. 16/17)	rescue of mild PE serum induced disrupted EC-HTR8 crosstalk (tube assay) [2]	rescue of mild PE serum induced disrupted EC-HTR8 crosstalk (tube assay) ([2]; listed as Recombinant TTR)	effect on NPS mediated tube formation ([2]; normal pregnancy serum (NPS), TTR 0.1, 1.0, 10 microgram/ml of serum)	rescue of severe PE serum induced disrupted EC-HTR8 crosstalk (tube assay) [2]	rescue of severe PE serum induced disrupted EC-HTR8 crosstalk (tube assay) ([2]; listed as Recombinant TTR)
transthyretin [endogenous TTR]	approximately 2 days									
transthyretin [recombinant TTR]		rescued	rescues sPE serum induced anomalies	rescues sPE serum induced anomalies	rescues sPE serum induced anomalies	substantially rescues	rescues mPE serum induced disruption	no significant effect	substantially rescues	rescues sPE serum induced disruption
